Data: patent US20080262000A1, “5-Alkoxyalkyl-6-alkyl-7-Aminoazolopyrimidines, Process for Their Preparation, Their Use for Controlling Harmful Fungi, and Compositions Comprising Them” (BASF Aktiengesellschaft, priority 2005, published 2008)
Like-named read-outs stand apart in the source and are kept apart here.

Tested on: Phytophthora infestans
Assay type: in vivo
Settings: potted tomato plants, untreated plants 90% infestation
[1] = 1 day of protective treatment, 250 ppm
[2] = 3 days of protective treatment, 250 ppm

`CCCCCCCCOCCCc1c(COC)nc2ncnn2c1N` [I-4] gave an infestation [1] of 1%.
In the case of `CCCCCCCCOCCCc1c(CCC)nc2ncnn2c1N` [comparative compound B], the infestation [1] is reported as 90% and the infestation [2] is reported as 90%.
With `CCCCCCCCc1c(C)nc2ncnn2c1N` [comparative compound A] the infestation (1 day of protective treatment, 16 ppm) was 70% and the infestation [2] was 90%.
